Laboratory results taken from article PMC11035696, “Prospective de novo drug design with deep interactome learning” (Nature Communications, 2024).

Tests used:
CYP2C9 = CYP2C9 (Homo sapiens, UniProt P11712); experiment: CYP inhibition dose-response; type: in vitro ADME; conditions: substrate DICLOFENAC
Description: (§1) SI11Absorption Distribution Metabolism and Excretion and Toxicity Data
(§2) To assess the drug-like characteristics of the newly designed PPAR modulators, a series of tests were conducted covering various aspects of absorption, distribution, metabolism, and excretion (ADME) properties. Specifically, these assessments included the parallel artificial membrane permeability assay (PAMPA) with permeation co- […]
(§3) efficients ([…]), LogD measurements, microsomal clearance, hepatocyte clearance, P-glycoprotein (Pgp) efflux ratio and binding and the unbound free fraction. Furthermore, the evaluation of inhibition po-tential against cytochrome P450 isoenzymes (CYP) proteins was investigated. For seven selected CYP proteins (i.e., Cyp3A4, Cyp1A2, Cyp2B6, Cyp2C9, Cyp2D6, Cyp2C19, and Cyp2C8) the half maximal inhibitory con-centration (IC50) was determined. (Table S15). […]
(§4) activity in the CYP assays was found.
(§5) Table S14: Absorption distribution metabolism and excretion (ADME) properties of compounds 1 and 2. […]
(§6) The values for microsomal clearance and CYP-inhibition represent single point measurements. […]
(§7) Molecule Enzyme Substrate IC50 (µM)

CYP2D6 = CYP2D6 (Homo sapiens, UniProt P10635); experiment: CYP inhibition dose-response; type: in vitro ADME; conditions: substrate DEXTROMETHORPHAN
CYP2D6, sequence (P10635 whole entry): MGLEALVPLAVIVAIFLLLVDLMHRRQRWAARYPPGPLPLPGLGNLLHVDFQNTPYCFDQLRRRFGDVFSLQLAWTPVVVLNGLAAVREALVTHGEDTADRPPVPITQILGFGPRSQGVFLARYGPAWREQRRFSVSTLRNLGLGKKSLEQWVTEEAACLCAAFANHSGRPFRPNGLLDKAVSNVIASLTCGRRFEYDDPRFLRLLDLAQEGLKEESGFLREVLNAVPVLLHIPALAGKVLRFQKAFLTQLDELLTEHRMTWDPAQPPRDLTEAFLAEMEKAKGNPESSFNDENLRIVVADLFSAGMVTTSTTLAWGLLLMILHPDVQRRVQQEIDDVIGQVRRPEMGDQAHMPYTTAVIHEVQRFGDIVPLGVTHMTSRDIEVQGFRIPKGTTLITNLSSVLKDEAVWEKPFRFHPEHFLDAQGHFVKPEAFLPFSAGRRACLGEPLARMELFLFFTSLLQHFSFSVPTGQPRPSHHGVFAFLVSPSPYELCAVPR
Description: as §1, §2, §3, §4, §5, §6, §7

CYP3A4 = CYP3A4 (Homo sapiens, UniProt P08684); experiment: CYP inhibition dose-response; type: in vitro ADME; conditions: substrate MIDAZOLAM
CYP3A4, sequence (P08684 whole entry): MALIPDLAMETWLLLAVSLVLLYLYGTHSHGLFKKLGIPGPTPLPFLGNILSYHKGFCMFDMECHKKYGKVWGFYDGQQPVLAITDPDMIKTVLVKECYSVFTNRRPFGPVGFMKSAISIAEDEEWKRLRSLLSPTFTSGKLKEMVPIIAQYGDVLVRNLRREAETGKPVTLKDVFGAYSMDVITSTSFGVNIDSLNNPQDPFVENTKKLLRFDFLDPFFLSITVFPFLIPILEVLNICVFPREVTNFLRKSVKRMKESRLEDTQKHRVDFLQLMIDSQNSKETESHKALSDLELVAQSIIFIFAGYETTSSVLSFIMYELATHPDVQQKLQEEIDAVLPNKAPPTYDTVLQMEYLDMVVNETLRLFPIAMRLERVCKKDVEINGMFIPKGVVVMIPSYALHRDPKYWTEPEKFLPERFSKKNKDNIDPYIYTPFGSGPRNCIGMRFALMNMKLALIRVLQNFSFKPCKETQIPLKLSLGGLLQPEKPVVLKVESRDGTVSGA
Description: as §1, §2, §3, §4, §5, §6, §7

human PPARγ = biological target: T1, human PPARγ (Homo sapiens, UniProt P37231); experiment: Gal4-hybrid reporter gene assay, PPARγ activation; type: cell-based; conditions: PPARγ, compounds 1 and 2, Table 4; read-out: pEC50 (converted)
T1 construct: expressed in transfected cells; host or cells: HEK293T
T1 sequence (P37231 238-503 limits assumed): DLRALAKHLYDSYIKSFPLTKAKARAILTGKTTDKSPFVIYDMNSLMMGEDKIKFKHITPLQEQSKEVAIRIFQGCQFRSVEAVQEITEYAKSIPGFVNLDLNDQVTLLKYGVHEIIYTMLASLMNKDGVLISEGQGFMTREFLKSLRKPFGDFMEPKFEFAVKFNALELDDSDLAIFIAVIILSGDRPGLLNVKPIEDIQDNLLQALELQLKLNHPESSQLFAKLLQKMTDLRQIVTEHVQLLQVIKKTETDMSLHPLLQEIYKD
Description: (§8) Compounds 1–3 were characterized in a hybrid reporter gene assay for their agoniztic effect on human nuclear receptors PPARα/γ/δ, RXRα, FXRα, RARα in HEK293T cells. Compound 1 was tested in an isothermal titration calorimetry (ITC) assay to measure direct binding affinity to the ligand-binding domain of PPARγ. ADME properties were measured in standardized assays at Roche.
PPAR activation was determined in uniform Gal4-hybrid reporter gene assays for the PPARα, PPARγ and PPARδ isoforms in HEK293T cells (German Collection of Microorganisms and Cell Culture GmbH, DSMZ) which were transiently transfected with pFR-Luc (Stratagene, La Jolla, CA, USA; reporter) and pRL-SV40 (Promega, Madison, WI, USA; internal control) and one pFA-CMV-hPPAR-LBD[97] clone, coding for the hinge region and ligand binding domain of the canonical isoform of human PPARα, PPARγ, PPARδ or respectively. Cells were cultured in Dulbecco’s modified Eagle’s medium (DMEM), high glucose supplemented with 10% fetal calf serum (FCS), sodium pyruvate (1 mM), penicillin (100 U ⋅ ml^-1), and streptomycin (100 μg ⋅ ml^-1) at 37 °C and 5% CO2 and seeded in 96-well plates (3 × 10^4 cells per well). After 24 h, medium was changed to Opti-MEM without supplements and cells were transiently transfected using Lipofectamine LTX reagent (Invitrogen) according to the manufacturer’s protocol. Five hours after transfection, cells were incubated with the test compounds in Opti-MEM supplemented with penicillin (100 U ⋅ ml^-1), streptomycin (100 μg ⋅ ml^-1) and 0.1% DMSO for 16 h before luciferase activity was measured using the Dual-Glo Luciferase Assay System (Promega) according to the manufacturer’s protocol on a Tecan Spark luminometer (Tecan Deutschland GmbH, Germany). Firefly luminescence was divided by Renilla luminescence and multiplied by 1000 resulting in relative light units (RLU) to normalize for transfection efficiency and cell growth. Fold activation was obtained by dividing the mean RLU of a test compound by the mean RLU of the untreated control. All samples were tested in at least three biologically independent experiments in duplicates. For dose-response curve fitting and calculation of EC50 values, the equation “[Agonist] versus response (variable slope—four parameters)” was used in GraphPad Prism (version 7.00, GraphPad Software, La Jolla, CA, USA) with fold activation data. The reference agonizts GW7647 (PPARα)[98],[99], pioglitazone (PPARγ)[100],[101] and L165,041 (PPARδ)[102],[103] were used to validate the assays and to monitor assay performance. Nuclear receptor selectivity profiling was performed with corresponding pFA-CMV-hNR-LBD clones and suitable reference agonizts on RARα (pFA-CMV-hRARα-LBD[104], 1 μM tretinoin), LXRα (pFA-CMV-hLXRα-LBD[104], 1 μM TO901317) and RXRα (pFA-CMV-h RXRα-LBD[105], 1 μM Bexarotene).

[1] = Hepatocyte clearance, human; type: in vitro ADME; design: Hepatocyte clearance human: unit not given here; conditions: for Hepatocyte clearance human: human hepatocytes, as printed in Table S14
Description: as §8, §1, §2
efficients ([…]), LogD measurements, microsomal clearance, hepatocyte clearance, P-glycoprotein (Pgp) efflux ratio and binding and the unbound free fraction. […]
Table S14: Absorption distribution metabolism and excretion (ADME) properties of compounds 1 and 2. The […]
values for […], LogD, protein binding, P-glycoprotein (Pgp) efflux ratio and permeability, and hepato-cyte clearance are presented as the mean and standard deviation, with a sample size of N = 3, i.e., 3 technical replicates each. The values for microsomal clearance and CYP-inhibition represent single point measurements.
Microsomal clearance, human (µL·min−1·mg−1 protein) ≥10 ≥10 ≥10
Microsomal clearance, mouse (µL·min−1·mg−1 protein) ≥10 ≥10 ≥10
Microsomal clearance, rat (µL·min−1·mg−1 protein) ≥10 ≥10 ≥10
Protein binding human (% free fraction) (%) - 0.21 0.42
PgP Transport mouse apical efflux ratio - 1.6 1.2
PgP Transport mouse permeability (nm·sec−1) - 15 60 […]

CYP2C9, sequence (P11712 whole entry): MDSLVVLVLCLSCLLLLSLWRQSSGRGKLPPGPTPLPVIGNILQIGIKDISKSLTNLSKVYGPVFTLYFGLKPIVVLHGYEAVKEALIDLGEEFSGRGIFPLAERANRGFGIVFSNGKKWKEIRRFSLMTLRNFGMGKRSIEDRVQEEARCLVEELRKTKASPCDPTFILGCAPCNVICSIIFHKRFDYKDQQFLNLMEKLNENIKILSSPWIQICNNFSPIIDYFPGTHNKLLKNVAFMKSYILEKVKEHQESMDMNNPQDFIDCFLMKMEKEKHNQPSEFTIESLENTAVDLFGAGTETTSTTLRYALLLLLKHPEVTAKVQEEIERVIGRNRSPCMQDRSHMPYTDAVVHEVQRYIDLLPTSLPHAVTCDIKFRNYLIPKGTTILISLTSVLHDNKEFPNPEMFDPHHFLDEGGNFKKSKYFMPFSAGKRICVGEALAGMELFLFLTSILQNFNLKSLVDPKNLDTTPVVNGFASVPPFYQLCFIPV

| Compound | IC50 (CYP2C9) [µM] | IC50 (CYP2D6) [µM] | IC50 (CYP3A4) [µM] | EC50 (human PPARγ) [µM] | clearance rate in human hepatocytes [1] [μL·min−1 10^6 cells−1] | Hepatocyte clearance human [1] |
| --- | --- | --- | --- | --- | --- | --- |
| COc1ccc(Oc2ccc3ncn(CCOc4ccc(CCC(=O)O)cc4)c3c2)cc1 [Compound 2] | > 20 | > 20 | > 20 | 2.29 | 19 | 19 |
| Cc1nnc(-c2ccc(OCCCOc3ccc(CCC(=O)O)c(F)c3)c(F)c2)s1 [Compound 1] | > 20 | > 20 | > 20 | 1.48 | 19 | 19 |
